Like-named read-outs stand apart in the source and are kept apart here.
Key:
PC-3 cells [1] = conditions: WST-1, three days of exposure; cited from earlier work
LNCaP cells [2] = conditions: WST-1, three days of exposure; cited from earlier work
DU145 cells [3] = assay: WST-1 cell proliferation assay, DU145; assay type: cell-based, human; conditions: for IC50 (Silibinin)/IC50(Derivative) DU145: fold potency relative to silibinin; for IC50: Homo sapiens, DU-145, 72 h, WST-1, three days of exposure, mean ± SD, n = 3
Method: (§1) The in vitro antiproliferative activities of six 7-O-substituted and 26 3-O-substituted silybin derivatives were evaluated using the WST-1 cell proliferation assay, according to the procedure as described in the Experimental Section in both androgen-sensitive (LNCaP) and androgen-insensitive (PC-3 and DU145) human prostate cancer cell lines. Silibinin and docetaxel were used as a positive control for comparison in the parallel experiments and the IC50 values calculated from the dose-response curves are summarized in Table 1. […] A three-carbon linker in 11 and 29, as well as a five-carbon linker in 31, 37 and 40, are beneficial to the potency.
(§2) All cell lines were initially purchased from American Type Culture Collection (ATCC^TM) (Manassas, VA, USA). The PC-3 and LNCaP prostate cancer cell lines were routinely cultured in RPIM-1640 medium supplemented with 10% FBS and 1% penicillin/streptomycin. The DU145 prostate cancer cells were routinely cultured in Eagle’s Minimum Essential Medium (EMEM) supplemented with 10% FBS and 1% penicillin/streptomycin. Cultures were maintained in a high humidity environment supplemented with 5% carbon dioxide at a temperature of 37 °C.
(§3) PC-3, DU145, or LNCaP cells were plated in 96-well plates at a density of 3,200 per well in 200 µL of culture medium. The cells were then separately treated with silibinin, or synthesized silibinin derivatives, at five different doses for three days, while equal treatment volumes of DMSO (0.25%) were used as the vehicle control. The cells were cultured in a CO2 incubator at 37 °C for three days. A total of 10 µL of the premixed WST-1 cell proliferation reagent (Clontech) was added to each well. After mixing gently for one min on an orbital shaker, the cells were incubated for an additional 3 h at 37 °C. To ensure a homogeneous distribution of color, it is important to mix gently on an orbital shaker for one min. The absorbance of each well was measured using a microplate reader (Synergy HT, BioTek, Winooski, VT, USA) at a wavelength of 430 nm. […] For calculating the IC50 values, a linear proliferative inhibition was made based on at least five dosages for each compound.

LNCaP cells [4] = assay: WST-1 cell proliferation assay, LNCaP; assay type: cell-based, human; conditions: for IC50 (Silibinin)/IC50(Derivative) LNCaP: fold potency relative to silibinin; for IC50: WST-1, three days of exposure, mean ± SD, n = 3
Method: as §1, §2, §3

DU145 cells [5] = conditions: WST-1, three days of exposure; cited from earlier work
PC-3 cells [6] = assay: WST-1 cell proliferation assay, PC-3; assay type: cell-based, human; conditions: for IC50 (Silibinin)/IC50(Derivative) PC-3: fold potency relative to silibinin; for IC50: WST-1, three days of exposure, mean ± SD, n = 3
Method: as §1, §2, §3

PC-3 cells [7] = assay: Cell cycle analysis by flow cytometry (propidium iodide); assay type: cell-based, human; conditions: 20 µM, 16 h; controls 55.7% (11), 36.2% (29), 33.1% (31, 37, 40)
Method: Silibinin can arrest the rat (H-7 and I-8) and human prostate cancer cell (LNCaP) cycle at the G1 phase, and cause G1 and G2-M PC-3 prostate cancer cell cycle arrest.
PC-3 cells were plated in 24-well plates at a density of 200,000 per well in 400 µL of culture medium. […] […] Both attached and floating cells were collected in a centrifuge tube by centrifugation at an rcf value of 450 g for 5 min. After discarding the supernatant, the collected cells were re-suspended with 500 µL 80% cold ethanol to fix them for 30 min in 4 °C. The fixed cells could be stored at −20 °C for one week. After fixation, the ethanol was removed after centrifuging and the cells were washed with PBS. The cells were then re-suspend with 100 μL of […] ribonuclease and were cultured at 37 °C for 30 min to degrade all RNA. The cells were stained with 200 μL of 50 μg/mLpropidium iodide stock solution for 30 min at […], and then the fluorescence intensity of PI was detected in individual PC-3 cells using an Attune flow cytometer (Life Technologies, Carlsbad, CA, USA) within 0.5 to 1 h after staining.

[8] = tested on: MCF 10A non-neoplastic human mammary epithelial cell line; assay: WST-1 cell proliferation assay, MCF 10A non-neoplastic cells; assay type: cell-based; conditions: for IC50: Homo sapiens, MCF-10A, 72 h, WST-1, three days of exposure, mean ± SD, n = 3
Method: (§4) Silibinin and five potent derivatives (11, 29, 31, 37, and 40) were selected for further evaluation against the MCF 10A non-neoplastic human mammary epithelial cell line and PWR-1E non-neoplastic human prostate epithelial cells.
as §3

[9] = tested on: PWR-1E non-neoplastic human prostate epithelial cells; assay: WST-1 cell proliferation assay, PWR-1E non-neoplastic cells; assay type: cell-based; conditions: for IC50: Homo sapiens, PWR-1E, 72 h, WST-1, three days of exposure, mean ± SD, n = 3
Method: as §4, §3

[10] = tested on: prostate cancer cell lines (LNCaP, PC-3 and DU145); assay: WST-1 cell proliferation assay, three prostate cancer cell lines together; assay type: cell-based, human; conditions: range for the five optimal derivatives over PC-3, DU145, LNCaP; for IC50: Homo sapiens
Source text: As part of our ongoing silybin project, this study aims to introduce a basic nitrogen-containing group to 7-OH of 3,5,20-O-trimethyl-2,3-dehydrosilybin or 3-OH of 5,7,20-O-trimethyl-2,3-dehydrosilybin via an appropriate linker for in vitro evaluation as potential anti-prostate cancer agents. The synthetic approaches to 7-O-substituted-3,5,20-O-trimethyl-2,3-dehydrosilybins through a five-step procedure and to 3-O-substituted-5,7,20-O-trimethyl-2,3- dehydrosilybins via a four-step transformation have been developed. Thirty-two nitrogen-containing derivatives of silybin have been achieved through these synthetic methods for the evaluation of their antiproliferative activities towards both androgen-sensitive (LNCaP) and androgen-insensitive prostate cancer cell lines (PC-3 and DU145) using the WST-1 cell proliferation assay. […] All these five optimal derivatives can arrest the PC-3 cell cycle in the G0/G1 phase and promote PC-3 cell apoptosis.
as §3
In summary, six 7-O-aminoalkyl-3,5-20-O-trimethyl-2,3-dehydrosilybins and 26 3-O-aminoalkyl-5,7,20-O-trimethyl-2,3-dehydrosilybins have been successfully synthesized through a five-step and four-step sequence, respectively. The synthetic methods can be used for the general synthesis of 7-O-substituted-3,5,20-O-trimethyl-2,3-dehydrosilybins and 3-O-substituted-5,7,20-O- trimethyl-2,3-dehydrosilybins. The antiproliferative activities of the 32 derivatives against three prostate cancer cell lines have been evaluated using the WST-1 cell proliferation assay. […] All these five optimal derivatives can cause PC-3 cell accumulation in a G0/G1 phase by increasing the cell population in this phase at 16 h. Derivatives 11, 37, and 40 show a stronger ability than derivatives 29 and 31 in activating PC-3 cell apoptosis by inducing appreciable levels of apoptotic cell death at a 5 µM concentration after 16 h of treatment.

PC-3 cells [11] = assay: F2N12S and SYTOX AADvanced double staining apoptosis assay; assay type: cell-based, human; conditions: for early phase apoptosis in PC-3 cells: 5 µM; for early phase apoptosis in PC-3 cells / early apoptotic cells / late apoptotic/necrotic cells: 16 h, range over 11, 37, 40; for concentration at which the apoptotic cell population reached its maximum: PC-3, 16 h
[12] = tested on: prostate cancer cell models; design: method as in PMID 17201169, PMID 26446382, PMID 27557939, PMID 21507570; conditions: cited from earlier work

Row | IC50 (Silibinin)/IC50(Derivative) DU145 (DU145 cells [3]) | IC50 (Silibinin)/IC50(Derivative) LNCaP (LNCaP cells [4]) | IC50 (Silibinin)/IC50(Derivative) PC-3 (PC-3 cells [6]) | IC50 (DU145 cells [3]) [µM] | IC50 (LNCaP cells [4]; Homo sapiens, LNCaP, 72 h) [µM] | IC50 (PC-3 cells [6]; Homo sapiens, PC-3, 72 h) [µM] | Structure (SMILES) | IC50 (PC-3 cells [1]) [µM] | IC50 (LNCaP cells [2]) [µM] | IC50 (DU145 cells [5]) [µM] | IC50 [8] [µM] | IC50 [9] [µM] | other results
1 | 51 | 24 | 52 | 1.84 ± 0.14 | ≤ 3 | – | CCCN(CCC)CCCOc1cc(OC)c2c(=O)c(OC)c(-c3ccc4c(c3)OC(c3ccc(OC)c(OC)c3)C(CO)O4)oc2c1 (stereo not shown) [Compound 11] | – | – | – | > 50 | > 50 | PC-3 cell population in G0/G1 phase (PC-3 cells [7]): 66.3%; antiproliferative activity towards MCF 10A ([8]; up to a 50 µM concentration): does not demonstrate apparent antiproliferative activity; antiproliferative activity towards PWR-1E ([9]; up to a 50 µM concentration): does not demonstrate apparent antiproliferative activity; IC50 [10]: 1.4 to 3.06 µM; fold improvement in potency compared to silibinin [10]: 17- to 52 fold; early phase apoptosis in PC-3 cells (PC-3 cells [11]): 26–59%; early apoptotic cells (PC-3 cells [11]; 10 µM): 56–76%; late apoptotic/necrotic cells (PC-3 cells [11]; 10 µM): 6–40%; early apoptotic cells (PC-3 cells [11]; 20 µM): 54–75%; late apoptotic/necrotic cells (PC-3 cells [11]; 20 µM): 16–44%; concentration at which the apoptotic cell population reached its maximum (PC-3 cells [11]): 5 µM; IC50 (LNCaP cells [4]): 1.82 ± 0.14 µM
2 | – | – | – | 93.3 ± 13.7 | 43.7 ± 10.9 | 72.7 ± 3.15 | COc1cc(C2Oc3cc([C@H]4Oc5cc(O)cc(O)c5C(=O)[C@@H]4O)ccc3OC2CO)ccc1O (stereo partly shown) [Silibinin, reference compound] | – | – | – | 23.8 ± 0.96 | 20.4 ± 4.09 | IC50 [12]: 40 to 106 µM
3 | – | – | – | 2.69 ± 0.03 | ≤ 3 | ≤ 3 | COc1cc(OC)c2c(=O)c(OCCCCCN3CCCCC3)c(-c3ccc4c(c3)OC(c3ccc(OC)c(OC)c3)C(CO)O4)oc2c1 (stereo not shown) [Compound 37] | – | – | – | < 5 | < 5 | PC-3 cell population in G0/G1 phase (PC-3 cells [7]): 34.6%; IC50 [10]: 1.4 to 3.06 µM; fold improvement in potency compared to silibinin [10]: 17- to 52 fold; early phase apoptosis in PC-3 cells (PC-3 cells [11]): 26–59%; early apoptotic cells (PC-3 cells [11]; 10 µM): 56–76%; late apoptotic/necrotic cells (PC-3 cells [11]; 10 µM): 6–40%; early apoptotic cells (PC-3 cells [11]; 20 µM): 54–75%; late apoptotic/necrotic cells (PC-3 cells [11]; 20 µM): 16–44%; concentration at which the apoptotic cell population reached its maximum (PC-3 cells [11]): 10 µM; IC50 (LNCaP cells [4]): 1.99 ± 0.23 µM; IC50 (PC-3 cells [6]): 2.71 ± 0.23 µM

Further lines, the compound ahead of its results:

Row | Structure (SMILES) | IC50 (Silibinin)/IC50(Derivative) DU145 (DU145 cells [3]) | IC50 (Silibinin)/IC50(Derivative) LNCaP (LNCaP cells [4]) | IC50 (Silibinin)/IC50(Derivative) PC-3 (PC-3 cells [6]) | IC50 (DU145 cells [3]) [µM] | IC50 (LNCaP cells [4]; Homo sapiens, LNCaP, 72 h) [µM] | IC50 (PC-3 cells [6]; Homo sapiens, PC-3, 72 h) [µM] | IC50 (PC-3 cells [1]) [µM] | IC50 (LNCaP cells [2]) [µM] | IC50 (DU145 cells [5]) [µM] | IC50 [8] [µM] | IC50 [9] [µM] | other results
4 | CCOc1cc(O)c2c(=O)c(O)c(-c3ccc4c(c3)OC(c3ccc(O)c(OC)c3)C(CO)O4)oc2c1 (stereo not shown) [Compound 3, 7-O-ethyl-2,3-dehydrosilybin, reference compound] | 12 | 17 | 22 | – | – | – | 3.25 ± 0.31 | 2.58 ± 0.07 | 7.59 ± 0.66 | – | – | –
5 | CNCCCOc1cc(OC)c2c(=O)c(OC)c(-c3ccc4c(c3)OC(c3ccc(OC)c(OC)c3)C(CO)O4)oc2c1 (stereo not shown) [Compound 9, 7-O-(N-Methylaminopropyl)-3,5,20-O-trimethyl-2,3-dehydrosilybin] | 2 | 4 | 2 | 39.6 ± 9.49 | 12.1 ± 1.81 | 42.6 ± 6.61 | – | – | – | – | – | melting point: 125 to 127 °C
6 | COc1cc(C2Oc3cc(-c4oc5cc(O)cc(O)c5c(=O)c4O)ccc3OC2CO)ccc1O (stereo not shown) [Compound 2, 2,3-dehydrosilybin] | 8 | 14 | 8 | – | – | – | 9.45 ± 0.56 | 3.09 ± 1.3 | 11.5 ± 1.42 | – | – | –
7 | CCCOc1c(-c2ccc3c(c2)OC(c2ccc(O)c(OC)c2)C(CO)O3)oc2cc(O)cc(O)c2c1=O (stereo not shown) [Compound 4, 3-O-propyl-2,3-dehydrosilybin, reference compound] | 8 | 21 | 42 | – | – | – | 1.71 ± 0.45 | 2.07 ± 0.18 | 11 ± 0.68 | – | – | –
8 | COc1ccc(C2Oc3cc(-c4oc5cc(OCCCBr)cc(OC)c5c(=O)c4OC)ccc3OC2CO)cc1OC (stereo not shown) [Compound 8, 7-O-(3′-bromo)propyl-3,5,20-O-trimethyl-2,3-dehydrosilybin] | 8 | 8 | 3 | 11.5 ± 2.38 | 5.71 ± 2.13 | 26.1 ± 3.58 | – | – | – | – | – | melting point: 115 to 116 °C

From article PMC6320956, “O-Aminoalkyl-O-Trimethyl-2,3-Dehydrosilybins: Synthesis and In Vitro Effects Towards Prostate Cancer Cells” (Molecules, 2018)
